Assay results from patent US20040152903A1, “6-chloro-3-pyridylmethylpropylamine derivatives, preparation process thereof and bactericides” (priority 2004, published 2004).

What was measured:
[1] = test system: Septoria tritici; test: Antifungal activity test (PDA plate, hypha extension inhibition); type: cell-based; details: 100 ppm in PDA culture medium
Method: (Antifungal Activity Test against Various Pathogenic Fungi) For each of the compounds I-1 to 27 of the present invention and the comparative compounds (a) to (d), (m-1) and (m-3), 20 mg was weighed and dissolved in 2 ml of dimethylsulfoxide, and a double dilution row in 10 steps was prepared by further using dimethylsulfoxide. A 0.6 ml portion of these solutions was each added to 60 ml of a PDA culture medium (potato-dextrose-agar culture medium) at about 60° C., they were well mixed in a 100 ml Erlenmeyer flask, the solution was poured into a schale and was solidified, the plate culture media containing the compounds according to the present invention with final concentrations of 100, 50.0, 25.0, 12.5, 6.3, 3.2, 1.6, 0.8, 0.4 and 0.2 mg/l were prepared. On the other hand, the specimen bacteria cultured on the plate culture media beforehand was punched by a 4 mm diameter cork borer, and was inoculated on the plate culture media containing the aforementioned chemicals. After the inoculation, the bacteria were cultured at the optimum growth temperature of each bacterium for 1 to 7 days (for this optimum growth temperature, LIST OF CULTURES 1996 Microorganisms 10th edition published by Fermentation Research Institute (Foundation) can be referred to.), and the growth of the bacteria was measured by the diameter of a colony. […] R=100(dc−dt)/dc (Equation 3) [wherein each symbol is shown as follows: R=Hypha extension inhibition rate (%), dc=Diameter of colony on no-treated plate, dt=Diameter of colony on chemical-treated plate.] The results obtained above was evaluated in 5 steps in accordance with the following examination scale. <Growth Inhibition> 5: Hypha extension inhibition rate of 90% or more 4: Hypha extension inhibition rate of from 70% to less than 90% 3: […] 2: […] In addition, the abbreviations in Table 10 are as follows: S.t: Septoria tritici

[2] = test system: wheat powdery mildew; test: Permeable mobility fungicidal effect test in leaf section of wheat powdery mildew; type: in vivo; details: length of non-contracted area relative to compound (m-2); 200 mg/l, 0.5 μl applied to wheat leaf (Abukumawase)
Method: (Permeable Mobility Fungicidal Effect Test in Leaf Section of Wheat Powdery Mildew) In the test example 4, permeable mobility fungicidal effect test was performed on the leaf section of wheat powdery mildew with regard to the compounds I-1 to 27 according to the present invention and the comparative compounds (a) to (d), and (m-1) to (m-3) with the method described later. <Test Method> The compound in the form of a wettable powder obtained by Formulation 2 or the like was diluted and suspended with water to a predetermined concentration (200 mg/l), and 0.5 μl of the suspension was applied to a 2 to 3 cm leaf portion from the root of the three leaves of the 4th to 4.5th leaf period wheat (variety: Abukumawase) cultured by using a square plastic pot (size: 6.4 cm×6.4 cm). After these wheat leaves were subject to still standing in a glass house (temperature: 20 to 24° C., relative humidity: 20 to 70 RH) for one day, the spores of wheat powdery mildew were inoculated over the leaves by sprinkling the same with a brush from an infected leaf, a disease was contracted in the same glass house. The length of a non-contracted area generated from the applied portion to the direction of the leaf top was measured, and a relative mobility to the compound (m-2) was calculated with the following calculation […] by using the comparative compound (m-2) as a standard compound. Relative mobility=(Length of non-contracted area in each chemical section (cm)/Length of non-contracted area of compound (m-2) (cm)) (Equation 4)

[3] = test system: Pseudocercosporella herpotrichoides; test: Antifungal activity test (PDA plate, hypha extension inhibition); type: cell-based; details: 25 ppm in PDA culture medium
Method: (Antifungal Activity Test against Various Pathogenic Fungi) For each of the compounds I-1 to 27 of the present invention and the comparative compounds (a) to (d), (m-1) and (m-3), 20 mg was weighed and dissolved in 2 ml of dimethylsulfoxide, and a double dilution row in 10 steps was prepared by further using dimethylsulfoxide. A 0.6 ml portion of these solutions was each added to 60 ml of a PDA culture medium (potato-dextrose-agar culture medium) at about 60° C., they were well mixed in a 100 ml Erlenmeyer flask, the solution was poured into a schale and was solidified, the plate culture media containing the compounds according to the present invention with final concentrations of 100, 50.0, 25.0, 12.5, 6.3, 3.2, 1.6, 0.8, 0.4 and 0.2 mg/l were prepared. On the other hand, the specimen bacteria cultured on the plate culture media beforehand was punched by a 4 mm diameter cork borer, and was inoculated on the plate culture media containing the aforementioned chemicals. After the inoculation, the bacteria were cultured at the optimum growth temperature of each bacterium for 1 to 7 days (for this optimum growth temperature, LIST OF CULTURES 1996 Microorganisms 10th edition published by Fermentation Research Institute (Foundation) can be referred to.), and the growth of the bacteria was measured by the diameter of a colony. […]

Structure (SMILES) | Growth Inhibition S.t (100) [1] | Relative Mobility [2] | Growth Inhibition P.h (25) [3]
CC(Cc1ccc(C(F)(F)F)c(F)c1F)CN(C)Cc1ccc(Cl)nc1 (stereo not drawn) [Compound I-10] | 4 (Hypha extension inhibition rate of from 70% to less than 90%) | 3 | 5 (Hypha extension inhibition rate of 90% or more)
CC(Cc1ccc2c(c1)OC(F)(F)O2)CN(C)Cc1ccc(Cl)nc1 (stereo not drawn) [Compound I-24] | 4 (Hypha extension inhibition rate of from 70% to less than 90%) | 6 | 5 (Hypha extension inhibition rate of 90% or more)
